# Measured values: BindingDB's records for doi:10.1016/j.bmc.2010.11.049 (Bryn Mawr College, 2011)
# pIC50: −log10 of the molar value.
# Test: Inhibition of HIV1 YU2 gp120 binding to CD4 expressing Cf2Th-CD4/CCR5 cells assessed as inhibition of viral infection after 48 hrs
row,Structure (SMILES),pIC50
1,"O=C(NCCc1cnc[nH]1)Nc1ccc(Cl)c(Cl)c1 [1-(2-(1H-imidazol-5-yl)ethyl)-3-(3,4-dichlorophenyl)urea]",< 4.00
2,O=C(Nc1ccc(Cl)cc1)Nc1ncnc2nc[nH]c12 [1-(4-chlorophenyl)-3-(9H-purin-6-yl)urea],< 4.00
3,"CC1(C)CC(=NNC(=O)c2[nH]nc3c2CCCC3)CC(C)(C)N1 [2,2,6,6-tetramethyl-4-(2-(4,5,6,7-tetrahydro-1H-indazole-3-carbonyl)hydrazono)piperidinium]",< 4.00
4,"CC1Sc2cc(C(=O)NC3CC(C)(C)NC(C)(C)C3)ccc2NC1=O (stereo not given) [2,2,6,6-tetramethyl-4-(2-methyl-3-oxo-3,4-dihydro-2H-benzo[b][1,4]thiazine-7-carboxamido)piperidinium]",< 4.00
5,"O=C(COc1ccc(Cl)cc1)Nc1cc(=O)[nH]c(=O)[nH]1 [2-(4-chlorophenoxy)-N-(2,6-dioxo-1,2,3,6-tetrahydropyrimidin-4-yl)acetamide]",< 4.00
6,"O=C(COc1ccc(Cl)cc1)Nc1ccc2[nH]c(=O)[nH]c2c1 [2-(4-chlorophenoxy)-N-(2-oxo-2,3-dihydro-1H-benzo[d]imidazol-5-yl)acetamide]",< 4.00
7,Cc1ccc(N(C)C)cc1NC(=O)COc1ccc(Cl)cc1 [2-(4-chlorophenoxy)-N-(5-(dimethylamino)-2-methylphenyl)acetamide],< 4.00
8,O=C(COC(=O)c1n[nH]c2ccccc12)Nc1ccc(Cl)cn1 [2-(5-chloropyridin-2-ylamino)-2-oxoethyl 1H-indazole-3-carboxylate],< 4.00
9,O=C(CN1CCCCCC1)Nc1ccc(Br)cc1 [2-(azepan-1-yl)-N-(4-bromophenyl)acetamide],< 4.00
10,"O=C(Nc1ccc2c(c1)C(=O)NC2=O)c1ccc(Cl)c(Cl)c1 [3,4-dichloro-N-(1,3-dioxoisoindolin-5-yl)benzamide]",< 4.00
11,"O=C(Nc1ccnc(=O)[nH]1)c1sc2cc(Cl)ccc2c1Cl [3,6-dichloro-N-(2-oxo-1,2-dihydropyrimidin-4-yl)benzo[b]thiophene-2-carboxamide]",< 4.00
12,Nc1ccc(C(=O)CC(=O)Nc2ccc(Cl)cc2)cc1 [3-(4-aminophenyl)-N-(4-chlorophenyl)-3-oxopropanamide],< 4.00
13,"CC1(C)CC(NC(=O)C(=O)Nc2ccc3cc[nH]c3c2)CC(C)(C)N1 [4-(2-(1H-indol-6-ylamino)-2-oxoacetamido)-2,2,6,6-tetramethylpiperidinium]",< 4.00
14,CCNC(=S)N1CCN(CC(=O)Nc2ccc(Br)cc2)CC1 [4-(2-(4-bromophenylamino)-2-oxoethyl)-N-ethylpiperazine-1-carbimidothioic acid],< 4.00
15,"CC1(C)CC(NC(=O)C(=O)NCCc2ccc(Cl)cc2)CC(C)(C)N1 [4-(2-(4-chlorophenethylamino)-2-oxoacetamido)-2,2,6,6-tetramethylpiperidinium]",< 4.00
16,"CN1CCCN(C(=O)COc2ccc(Cl)cc2)CC1 [4-(2-(4-chlorophenoxy)acetyl)-1-methyl-1,4-diazepan-1-ium]",< 4.00
17,"CN1CCC(NC(=O)Nc2ccc(Cl)cc2Cl)CC1 [4-(3-(2,4-dichlorophenyl)ureido)-1-methylpiperidinium]",< 4.00
18,"C[C@@H]1CN(CCC(=O)Nc2ccc(Br)cc2)C[C@H](C)O1 [(2R,6S)-4-(3-(4-bromophenylamino)-3-oxopropyl)-2,6-dimethylmorpholin-4-ium]",< 4.00
19,CCOC(=O)[C@H]1CCCN(CCC(=O)Nc2ccc(Br)cc2)C1 [(3S)-1-(3-(4-bromophenylamino)-3-oxopropyl)-3-(ethoxycarbonyl)piperidinium],< 4.00
20,C[C@H]1CCCN(CCC(=O)Nc2ccc(Cl)cc2)C1 [(3S)-1-(3-(4-chlorophenylamino)-3-oxopropyl)-3-methylpiperidinium],< 4.00
21,"C[C@@H](Sc1nc(N)cc(=O)[nH]1)C(=O)Nc1ccc(Cl)cc1 [(R)-2-(6-amino-4-oxo-1,4-dihydropyrimidin-2-ylthio)-N-(4-chlorophenyl)propanamide]",< 4.00
22,"O=C(NC[C@@H]1COC2(CCCC2)O1)C(=O)Nc1ccc(Cl)cc1 [(R)-N1-(1,4-dioxaspiro[4.4]nonan-2-ylmethyl)-N2-(4-chlorophenyl)oxalamide]",< 4.00
23,O=C(Nc1ccc(Cl)c(F)c1)C(=O)N[C@@H]1CCN(Cc2ccccc2)C1 [(R)-N1-(1-benzylpyrrolidin-3-yl)-N2-(4-chloro-3-fluorophenyl)oxalamide],4.23
24,"CC1(C)NC(=O)N(C[C@H](O)COc2ccc(Cl)cc2)C1=O [(S)-3-(3-(4-chlorophenoxy)-2-hydroxypropyl)-5,5-dimethylimidazolidine-2,4-dione]",< 4.00
25,O=C(Nc1ccc(Cl)c(F)c1)C(=O)N[C@H]1CCN(Cc2ccccc2)C1 [(S)-N1-(1-benzylpyrrolidin-3-yl)-N2-(4-chloro-3-fluorophenyl)oxalamide],< 4.00

row,Structure (SMILES),pIC50
1,COc1cccc(N[C@@H](C)C(=O)Nc2ccc(Br)cc2)c1 [(S)-N-(4-bromophenyl)-2-(3-methoxyphenylamino)propanamide],< 4.00
2,"C[C@H](Sc1nc(N)cc(N)n1)C(=O)Nc1ccc(Cl)cc1 [(S)-N-(4-chlorophenyl)-2-(4,6-diaminopyrimidin-2-ylthio)propanamide]",< 4.00
3,"CC1(C)OC(=O)N(CCC(=O)Nc2ccc(Cl)cc2)[C@@]1(C)O [(S)-N-(4-chlorophenyl)-3-(4-hydroxy-4,5,5-trimethyl-2-oxooxazolidin-3-yl)propanamide]",< 4.00
4,O=C(Nc1ccc(Cl)c(F)c1)C(=O)NC1CCN(C(=O)c2ccccc2)CC1 [N1-(1-benzoylpiperidin-4-yl)-N2-(4-chloro-3-fluorophenyl)oxalamide],< 4.00
5,"CC1(C)CC(NC(=O)C(=O)Nc2c[nH]c3ncccc23)CC(C)(C)N1 [N1-(1H-pyrrolo[2,3-b]pyridin-3-yl)-N2-(2,2,6,6-tetramethylpiperidin-4-yl)oxalamide]",< 4.00
6,"CC1(C)CC(NC(=O)C(=O)Nc2ccc(Cl)cc2Cl)CC(C)(C)N1 [N1-(2,4-dichlorophenyl)-N2-(2,2,6,6-tetramethylpiperidin-4-yl)oxalamide]",< 4.00
7,"CC1(C)CC(NC(=O)C(=O)Nc2ccc(Cl)cc2OCc2ccccc2)CC(C)(C)N1 [N1-(2-(benzyloxy)-4-chlorophenyl)-N2-(2,2,6,6-tetramethylpiperidin-4-yl)oxalamide]",< 4.00
8,"CC(C)c1ccccc1NC(=O)C(=O)NC1CC(C)(C)NC(C)(C)C1 [N1-(2-isopropylphenyl)-N2-(2,2,6,6-tetramethylpiperidin-4-yl)oxalamide]",< 4.00
9,"CC1(C)CC(NC(=O)C(=O)Nc2ccc(Cl)c(OCc3ccccc3)c2)CC(C)(C)N1 [N1-(3-(benzyloxy)-4-chlorophenyl)-N2-(2,2,6,6-tetramethylpiperidin-4-yl)oxalamide]",< 4.00
10,"CC1(C)CC(NC(=O)C(=O)Nc2cccc(OCc3ccccc3)c2)CC(C)(C)N1 [N1-(3-(benzyloxy)phenyl)-N2-(2,2,6,6-tetramethylpiperidin-4-yl)oxalamide]",< 4.00
11,"CC(C)c1cccc(NC(=O)C(=O)NC2CC(C)(C)NC(C)(C)C2)c1 [N1-(3-isopropylphenyl)-N2-(2,2,6,6-tetramethylpiperidin-4-yl)oxalamide]",< 4.00
12,"CC1(C)CC(NC(=O)C(=O)Nc2ccc(-n3cc(CCCCCO)nn3)cc2)CC(C)(C)N1 [N1-(4-(4-(5-hydroxypentyl)-1H-1,2,3-triazol-1-yl)phenyl)-N2-(2,2,6,6-tetramethylpiperidin-4-yl)oxalamide]",< 4.00
13,"CC1(C)CC(NC(=O)C(=O)Nc2ccc(-n3cc(CCc4ccccc4)nn3)cc2)CC(C)(C)N1 [N1-(4-(4-phenethyl-1H-1,2,3-triazol-1-yl)phenyl)-N2-(2,2,6,6-tetramethylpiperidin-4-yl)oxalamide]",< 4.00
14,"CC1(C)CC(NC(=O)C(=O)Nc2ccc(-n3cc(-c4ccccc4)nn3)cc2)CC(C)(C)N1 [N1-(4-(4-phenyl-1H-1,2,3-triazol-1-yl)phenyl)-N2-(2,2,6,6-tetramethylpiperidin-4-yl)oxalamide]",< 4.00
15,"CC1(C)CC(NC(=O)C(=O)Nc2ccc(N=[N+]=[N-])cc2)CC(C)(C)N1 [N1-(4-azidophenyl)-N2-(2,2,6,6-tetramethylpiperidin-4-yl)oxalamide]",< 4.00
16,"O=C(NCC1COc2ccccc2O1)C(=O)Nc1ccc(Br)cc1 (stereo not given) [N1-(4-bromophenyl)-N2-((2,3-dihydrobenzo[b][1,4]dioxin-2-yl)methyl)oxalamide]",< 4.00
17,O=C(NCc1ccco1)C(=O)Nc1ccc(Br)cc1 [N1-(4-bromophenyl)-N2-(furan-2-ylmethyl)oxalamide],< 4.00
18,O=C(NCC1OCCc2ccccc21)C(=O)Nc1ccc(Br)cc1 (stereo not given) [N1-(4-bromophenyl)-N2-(isochroman-1-ylmethyl)oxalamide],< 4.00
19,O=C(Nc1ccc(Br)cc1)C(=O)Nc1cccc2ccccc12 [N1-(4-bromophenyl)-N2-(naphthalen-1-yl)oxalamide],< 4.00
20,"CC1(C)CC(NC(=O)CC(=O)Nc2ccc(Br)cc2)CC(C)(C)N1 [N1-(4-bromophenyl)-N3-(2,2,6,6-tetramethylpiperidin-4-yl)malonamide]",< 4.00
21,"CC1(C)CC(NC(=O)CCC(=O)Nc2ccc(Br)cc2)CC(C)(C)N1 [N1-(4-bromophenyl)-N4-(2,2,6,6-tetramethylpiperidin-4-yl)succinamide]",< 4.00
22,"CC1(C)CC(NC(=O)C(=O)Nc2ccc(Cl)cc2C(F)(F)F)CC(C)(C)N1 [N1-(4-chloro-2-(trifluoromethyl)phenyl)-N2-(2,2,6,6-tetramethylpiperidin-4-yl)oxalamide]",< 4.00
23,"CCOc1cc(Cl)ccc1NC(=O)C(=O)NC1CC(C)(C)NC(C)(C)C1 [N1-(4-chloro-2-ethoxyphenyl)-N2-(2,2,6,6-tetramethylpiperidin-4-yl)oxalamide]",< 4.00
24,"CC1(C)CC(NC(=O)C(=O)Nc2ccc(Cl)cc2F)CC(C)(C)N1 [N1-(4-chloro-2-fluorophenyl)-N2-(2,2,6,6-tetramethylpiperidin-4-yl)oxalamide]",< 4.00
25,"CC(C)COc1cc(Cl)ccc1NC(=O)C(=O)NC1CC(C)(C)NC(C)(C)C1 [N1-(4-chloro-2-isobutoxyphenyl)-N2-(2,2,6,6-tetramethylpiperidin-4-yl)oxalamide]",< 4.00
